Measured values published in patent US7109209B2, “Pyrazolopyridines, process for their preparation and use as therapeutic compounds” (SmithKline Beecham Corporation, priority 2001, dated 2006).
pIC50: −log10 of the molar value.

Test system: HSV-1
Experiment: HSV-1 infection of Vero 76 cells, viral DNA detected by hybridization capture (chemiluminescence)
Type: cell-based
Settings: Human alphaherpesvirus 1; HSV-1 in Vero 76 cells, MOI=0.001, 40-48 hours at 37° C.
Description: Vero 76 cells were maintained in MEM with Earle's salts, L-glutamine, 8% FBS (Hyclone, A-1111-L) and 100 units/mL Penicillin-100 μg/mL Streptomycin. For assay conditions, FBS was reduced to 2%. Cells are seeded into 96-well tissue culture plates at a density of 5×10^4 cells/well after being incubated for 45 min at 37° C. in the presence of HSV-1 or HSV-2 (MOI=0.001). Test compounds are added to the wells and the plates are incubated at 37° C. for 40-48 hours. Cell lysates are prepared as follows: media was removed and replaced with 150 VL/well 0.2 N NaOH with 1% Igepal CA 630 or NP-40. Plates were incubated up to 14 days at room temperature in a humidified chamber to prevent evaporation.
For the detection probe, a gel-purified, digoxigenin-labeled, 710-bp PCR fragment of the HSV UL-15 sequence was utilized. […]
Twenty-seven (27) μL of cell lysate was combined with 45 μL of hybridization solution (final concentration: 3M GuSCN, 50 mM EDTA, 100 μg/ml salmon sperm DNA, 5× Denhardt's solution, 0.25×APE, and 5 ng of the digoxigenin-labeled detection probe). […] The plates were incubated at room temperature for 30 minutes and chemiluminescence was measured in a Wallac Victor reader.

pIC50 | SMILES
5.70 | CCSc1cc(Cl)cc2c(-c3ccnc(NC4CCCC4)n3)c(-c3ccc(F)cc3)nn12 [Example 32, N-{4-[5-Chloro-7-(ethylsulfanyl)-2-(4-fluorophenyl)pyrazolo[1,5-α]pyridin-3-yl]-2-pyrimidinyl}-N-cyclopentylamine]
6.30 | CSc1cc(N2CCOCC2)cc2c(-c3ccnc(NC4CCCC4)n3)c(-c3ccc(F)cc3)nn12 [Example 44, N-Cyclopentyl-4-[2-(4-fluorophenyl)-7-(methylthio)-5-morpholin-4-ylpyrazolo[1,5-α]pyridin-3-yl]pyrimidin-2-amine]
